Assay results taken from US12195551B2, “Combination of an ErbB-2/ErbB-3 bispecific antibody with endocrine therapy for breast cancer” (Merus N.V., priority 2017, dated 2025).
Values joined by “and” are separate entries in the source; they are usually repeats but may differ in a detail not shown here. Equal values may be shown once. “Also recorded” adds a separate entry of the source.

How the values were obtained:
[1] = system: MCF-7 human breast carcinoma; assay: Efficacy in nude mouse xenograft model of MCF-7 human breast carcinoma; type: in vivo; conditions: for % TGI (tumor growth inhibition): D25, relative to the control group, Faslodex 5.0 mg/animal, Tamoxifen 1 mg/animal; for % TGI (tumor growth inhibition) / median tumor volume: MCLA-128 25 mg/kg i.p.; for median tumor volume: D25, Faslodex 5.0 mg/animal s.c. qwk×5, Tamoxifen 1 mg/animal s.c. qod×15; for P relative to the control group: D25 tumor volumes, Mann-Whitney test; for anti-tumor efficacy / survival benefit (in words): MCF-7 nude mouse xenograft model; for Volume (mm^3) of xenograft MCF-7 tumors / Weight (mgs) of xenograft MCF-7 tumors: individual tumors of sampling groups 8-10 for pharmacodynamic analysis, 8 day treatment, harvested 24 hours after last dose
Protocol: MCLA-128 was evaluated as monotherapy and in combination with the SERM Tamoxifen and SERD Fulvestrant (Faslodex®) for efficacy in a nude mouse xenograft model of estrogen responsive MCF-7 human breast carcinoma. The study design also included tumor collection for downstream analysis.
Treatments began on D1 in mice with established subcutaneous MCF-7 tumors. The study endpoint was intended to be a tumor volume endpoint of 1000 mm3 45 days, whichever came first. […] Tumor regressions, mean tumor growth, and treatment tolerability also were considered.
The animals were fed ad libitum water (reverse osmosis, 1 ppm Cl) and NIH 31 Modified and Irradiated Lab Diet® consisting of 18.0% crude protein, 6.0% crude fat, and 5.0% crude fiber. The mice were housed on irradiated Enrich-o'Cobs™ Laboratory Animal Bedding in static 85 microisolators on a 12-hour light cycle at […] (68-72° F.) and 40-60% humidity.
Three days prior to tumor cell implantation, estrogen pellets (0.36 mg estradiol, 60-day release, Innovative Research of America, Sarasota, FL) were implanted subcutaneously between the scapulae of all test animals using a sterilized trocar.
Xenografts were initiated with cultured MCF-7 human breast carcinoma cells. Tumor cells were grown to mid-log phase in RPMI-1640 medium containing 10% fetal bovine serum, 100 units/mL penicillin G, 100 μg/mL streptomycin sulfate, 2 mM glutamine, 10 mM HEPES, 0.075% sodium bicarbonate and 25 μg/mL gentamicin. On the day of tumor cell implant, the cells were trypsinized, pelleted, and resuspended in phosphate buffered saline (PBS) at a concentration of 1×10e8 cells/mL. Each test mouse received 1×10e7 MCF-7 cells implanted subcutaneously in the right flank, and tumor growth was monitored as their mean volume approached the desired 100 to 150 mm3 range.
Nineteen days after tumor cell implantation, designated as D1 of the study, the mice were placed into six groups of 15 animals and four groups of six animals, Individual tumor volumes ranged from 75 to 196 mm3 and group mean tumor volumes of 134-137 mm3 on D1. Tumor weight was estimated with the assumption that 1 mg is equivalent to 1 mm3 of tumor volume.
MCLA-128 was stored at 4° C., was provided pre-formulated at 2.5 mg/mL and ready to dose as 25 mg/kg in a 10 mL/kg dose volume, and was protected from light during storage and handling. Tamoxifen (Sigma-25 Aldrich. Lot No. WXBB5732V) was received as a powder and was stored at 4° C. protected from light. Each week, a 5 mg/mL dose solution was prepared in corn oil, and each mouse received 0.2 mL for a dose of 1 mg/animal. The dose solution was stored at 4° C. Fulvestrant tradename Faslodex® (AstraZeneca, Lot No. LV032, LW466, and LX432) was received as 50 mg/mL stock solution that was stored at 4° C. Each dosing day, the stock was diluted in corn oil to 25 mg/mL, and each mouse received 0.2 mL for a dose of 5 mg/animal.
Groups 1 and 7 served as controls for efficacy and sampling, respectively, and received MCLA-128 vehicle intraperitoneally (i.p.) on D1, 4, 8, 11, 15, 18, 22, 25, and 29 and corn oil subcutaneously (s.c.) every other day for fifteen doses (qod×15). Groups 2 and 8 were administered MCLA-128 at 25 mg/kg, i.p., on the same schedule as MCLA-128 vehicle. Groups 3 and 9 were administered Faslodex® at 5.0 mg/animal, s.c., once weekly for five weeks (qwk×5). Group 4 was administered Tamoxifen at 1 mg/animal, s.c., qod×15. Groups 5 and 10 received MCLA-128 and Faslodex®, on the regimens described above. Group 6 received MCLA-128 and Tamoxifen on the regimens described above.
MCLA-128 was administered at a 10 mL/kg dose volume, scaled to the individual body weight of each animal.

[2] = system: HER2:HER3 dimers; assay: VeraTag assay HER2:HER3 dimers in MCF-7 xenograft tumors; type: in vivo, human
Protocol: (§3) Modulation of levels of total HER2, total HER3 and HER2:HER3 dimers in MCF-7 tumors after 8 day treatment period. […] 24 hours after the last dose, tumors were harvested, processed to FFPE and subjected to VeraTag analysis for the indicated assays. Five independent tumors per treatment group were used for the final analysis. A statistical t-test compared all groups independently. * indicates P<0.01.
(§4) All formalin-fixed tumors from example 2 were processed to FFPE blocks. The initial VeraTag assay analysis (round 1) was performed with 3 tumors per group
(§5) Prior to the VeraTag analysis, tumors were sectioned and stained with hematoxylin-eosin to determine the percentage of tumor content. Microlaser capture was used to grossly remove any non-tumor content. The initial round of analysis included the following five VeraTag assays: total HER2, total HER3, HER2:HER3 dimers, HER3-PI3K complexes and phosphorylated HER3.
(§6) The tumors analyzed in Round 1 that had scores close to the average value of the specific assays were included in Round 2 to estimate the inter-assay reproducibility and to ensure the data from the two independent experiments could be combined.

[3] = system: total HER3; assay: VeraTag assay total HER3 in MCF-7 xenograft tumors; type: in vivo, human; conditions: data from both rounds combined; 8 day treatment
Protocol: as §3, §4, §5, §6

[4] = system: phosphorylated HER3; assay: VeraTag assay phosphorylated HER3 in MCF-7 xenograft tumors; type: in vivo, human; conditions: round 1
Protocol: (§7) The initial VeraTag assay analysis (round 1) was performed with 3 tumors per group
as §5

[5] = system: HER3-PI3K complexes; assay: VeraTag assay HER3-PI3K complexes in MCF-7 xenograft tumors; type: in vivo, human; conditions: round 1
Protocol: as §7, §5

[6] = system: Akt; assay: Reverse phase protein array (RPPA) in MCF-7 tumor xenografts: Akt; type: in vivo, human; conditions: vs vehicle group, one-way ANOVA; tumors collected at maximum tolerated volume or day 39
Description: (§1) FIG. 9. Reverse phase protein array (RPPA) in MCF-7 tumor xenografts treated with vehicle, MCLA-128, Fulvestrant, Tamoxifen, MCLA-128+ Fulvestrant or MCLA-128+ Tamoxifen. Proteins detected in this assay included (phospho)-Akt and (phospho)-HER3 (full data provided in Appendix 4). One-way ANOVA compared levels in all tumors derived from treatment groups with those derived from the PBS group. ** indicates P<0.01.
(§2) Tumors from groups 1-6 were collected when they had reached the maximum tolerated volume, or at the end of the experiment at day 39, which was 10 days after the last dose. Per treatment group, six tumors were included in the Reverse phase protein array (RPPA). The selection of tumors was made so that the average tumor size of the 6 specimens was close to that of the whole group. RPPA analysis was performed as follows: tumors were sectioned and placed on immunohistochemistry slides. Stromal and inflammatory content was macrodissected to purify for tumors cells. Protein lysates were prepared and protein content was quantified. […] Reverse phase protein array (RPPA) data were analyzed using one-way ANOVA to detect significant differences between the treatment groups and the vehicle group. […] Total ERK levels were increased in the single agent groups only, no differences were measured in the other groups or in the phosphorylated ERK analysis. […]

[7] = system: HER2; assay: Reverse phase protein array (RPPA) in MCF-7 tumor xenografts: HER2; type: in vivo, human; conditions: vs vehicle group, one-way ANOVA
Description: as §1, §2

[8] = system: HER3; assay: Reverse phase protein array (RPPA) in MCF-7 tumor xenografts: HER3; type: in vivo, human; conditions: vs vehicle group, one-way ANOVA
Description: as §1, §2

[9] = system: HER3; conditions: in vitro and in vivo; cited from earlier work
[10] = system: total HER2; assay: VeraTag assay total HER2 in MCF-7 xenograft tumors; conditions: data from both rounds combined; 8 day treatment
Protocol: as §3, §4, §5, §6

[11] = system: human HBCx-34 breast tumor xenograft; assay: Antitumor efficacy in HBCx-34 patient-derived breast cancer xenograft (study XTS-1521); type: in vivo, mouse
Protocol: Antitumor efficacy of an HER2/HER3 targeting antibody was determined in the context of a combination treatment together with an aromatase inhibitor. […] It was used as single agent and in combination with the aromatase inhibitor Letrozole. The hormone-dependent HBCx-34 patient-derived breast cancer xenograft model established in immunodeficient mice was used as an example of a breast cancer.
The HBCx-34 PDX model was derived from a treatment-naïve primary breast infiltrating ductal carcinoma.
Tumor-bearing mice received estrogen diluted in drinking water (β-oestradiol, 8.5 mg/l), from the date of tumor implant to the date of inclusion. During the treatment period, mice were not supplemented with estrogen.
Tumors of the same passage were transplanted subcutaneously onto 6-24 mice (donor mice, passage (n−1)). When these tumors reached 1000 to 2000 mm^3, donor mice were sacrificed by cervical dislocation, tumors were aseptically excised and dissected. After removing necrotic areas, tumors were cut into fragments measuring approximately 20 mm^3 and transferred in culture medium before grafting.
95 mice were anaesthetized with 100 mg/kg ketamine hydrochloride (batch 5D92, Exp: 2017/03, Virbac) and 10 mg/kg xylazine (batch KP0AX9X, Exp: 2017/08, Bayer), and then skin was aseptized with a chlorhexidine solution, incised at the level of the interscapular region, and a 20 mm^3 tumor fragment was placed in the subcutaneous tissue. Skin was closed with clips. All mice from the same experiment were implanted on the same day.
Treatments were randomly attributed to boxes housing up to 5 mice and were initiated 36 days post implantation of the tumor (42% inclusion rate). The study was terminated following 57 days after the start of treatment.
Tumor volume was evaluated by measuring tumor diameters, with a calliper, biweekly during the experimental period.
The formula TV (mm3)=[length (mm)×width (mm)2]/2 was used, where the length and the width are the longest and the shortest diameters of the tumor, respectively.
A total of 4 groups were used as summarized in the scheme below. Each group initially included 10 mice.
All treatment doses were body weight adjusted at each injection.

[12] = system: total HER2, total HER3, HER2:HER3 dimers, HER3-PI3K complexes and phosphorylated HER3; assay: VeraTag assays (five assays) on MCF-7 xenograft tumors; type: in vivo, human; conditions: round 1, 3 tumors per group
Protocol: Xenograft mice were treated for 8 days with a total of 3 doses of MCLA-128 or 2 doses of Fulvestrant or the combination thereof. 24 hours after the last dose, tumors were harvested, processed to FFPE and subjected to VeraTag analysis for the indicated assays. Five independent tumors per treatment group were used for the final analysis. A statistical t-test compared all groups independently. * indicates P<0.01.
as §7, §5

[13] = system: cells stimulated with high concentrations of heregulin (HRG); assay: In vitro potency in heregulin-stimulated cells; type: cell-based
[14] = MCLA-128 25 mg/kg i.p., Letrozole […] p.o. qdx57
Protocol: All animals were weighed biweekly during the experimental period.
Toxicity of the different treatments was determined as: body weight loss percent (% BWL)=100−(mean BWx/mean BW0×100), where BWx is the mean BW at any day during the treatment and BW0 is the mean BW on the 1st day of treatment.

[15] = MCLA-128 25 mg/kg IP, Letrozole […] PO qdx57

C[C@]12CC[C@@H]3c4ccc(O)cc4C[C@@H](CCCCCCCCC[S+]([O-])CCCC(F)(F)C(F)(F)F)[C@H]3[C@@H]1CC[C@@H]2O (stereo partly drawn) [Fulvestrant]
% TGI (tumor growth inhibition) [1]: 52% | median tumor volume [1]: 288 mm3 | P relative to the control group [1]: < 0.001 | anti-tumor efficacy / survival benefit (in words) [1]: significantly reduced tumor growth | Volume (mm^3) of xenograft MCF-7 tumors ([1]; listed as Faslodex®): 196 mm^3 (3×) and 172 mm^3 and 144 mm^3 | Weight (mgs) of xenograft MCF-7 tumors ([1]; listed as Faslodex®): 137.9 mgs and 140.1 mgs and 174.4 mgs and 119.7 mgs and 117.3 mgs | HER2:HER3 dimerization (VeraTag) ([2]; data from both rounds combined, 8 day treatment): significantly induced HER2:HER3 dimerization compared to vehicle; also recorded: induces the formation of HER2:HER3 dimers | HER2:HER3 dimers (VeraTag) ([2]; round 1, 3 tumors per group): significantly upregulated the formation of HER2:HER3 dimers | HER3 expression (VeraTag) [3]: slight increase in HER3 | phospho HER3 assay (VeraTag) [4]: no significant effect | HER3-PI3K assay (VeraTag) [5]: no significant effect | Total and phosphorylated Akt levels (RPPA) [6]: increased | Total HER2 levels (RPPA) [7]: significantly increased | HER3 total levels (RPPA) [8]: significantly increased | HER3 expression in MCF-7 cells [9]: upregulate HER3 expression | HER2 expression levels (VeraTag) [10]: significantly higher than in the MCLA-128 single or combined treatment groups; also recorded: significantly higher levels of HER2 expression

MCLA-128: ADCC-enhanced IgG1 bispecific antibody that targets the HER2:HER3 dimer
Best T/C % [11, 15]: 91.14% | Best TGE % [11, 15]: 31.59% | T/C % (at control group day end) [11, 15]: 101.56% | TGI % (at control group day end) [11, 15]: 4.87% | median TGD × 3 (In days) [11, 15]: 48.64 days | TFS (Tumor Free Survivor) ([11]; number of complete regressions recorded up to Group Day End): 0 | CR (complete regression) ([11]; number of mice with 0 to 14 mm^3 tumor size during at least 3 consecutive measurements): 0 | TS (Tumor Stabilization) ([11]; number of mice with constant tumor size during at least 6 consecutive measurements): 1/9 and 1 | PR (partial regression) ([11]; number of mice with tumor size lower than initial during at least 6 consecutive measurements): 1/9 and 1 | % TGI (tumor growth inhibition) [1]: 0% | median tumor volume [1]: 600 mm3 | P relative to the control group [1]: > 0.05 | anti-tumor efficacy / survival benefit (in words) [1]: no anti-tumor efficacy as a single agent | Volume (mm^3) of xenograft MCF-7 tumors [1]: 144 mm^3 and 256 mm^3 and 221 mm^3 and 288 mm^3 and 320 mm^3 | Weight (mgs) of xenograft MCF-7 tumors [1]: 120.5 mgs and 98.2 mgs and 135.5 mgs and 134 mgs and 207.7 mgs | effect in any of the VeraTag assays relative to vehicle [12]: no significant effect | in vitro potency [13]: superior to other anti-HER2 and anti-HER3 antibodies | tolerability (in words) [14]: well tolerated | maximum individual body weight loss ([14]; day of maximum as in text): 8.3% | maximum mean body weight loss ([14]; day of maximum as in text): 0.4%
